Data as given in patent US5594006A, “Carbostyril derivatives as matrix metalloproteinases inhibitors” (Otsuka Pharmaceutical Co., Ltd., priority 1993, dated 1997).

Legend:
[1] = molecular target: Type IV collagenase; assay: Type IV collagenase inhibiting activity (fluorescence labeled gelatin); format: biochemical, human; settings: from HT-1080 cell; 6 hours at 37° C., pH 7.5
Procedure: (3) Measuring Method of Type IV Collagenase Inhibiting Activity
Inhibiting of type IV collagenase refined from the culture supernatant of human […] (HT-1080 cell) was measured by using fluorescence labeled gelatin, according to the method proposed by Haris et al. [Haris, E. D., and Krane, S. M., Biochim. Biophys. Acta., 258, 566-576 (1972)].
The enzyme was activated by incubating for 22 hours at 37° C. in 1 mM mercury (II) p-aminophenylacetate. The test compound was used by dissolving in dimethyl sulfoxide. The enzyme reaction was started by adding the activated enzyme in 50 mM TRIS-hydrochloric acid (pH 7.5), 10 mM CaCl2, 0.01% (w/v) "Bridge 35" (tradename, available from Wako Pure Chemical Industries, Ltd.), 0.1% (v/v) dimethyl sulfoxide solution containing the test compound and 0.1% (w/v) of fluorescence labeled gelatin as substrate. The reaction was conducted for 6 hours at 37° C., and stopped by adding 30% (w/v) trichloroacetic acid solution by 1/2 amount. After letting stand at 4° C. for 30 minutes, by centrifugal separation for 10 minutes at 10000 rpm, 4° C., the undigested substrate was precipitated. To 1 part by volume of the obtained supernatant, 50 parts by volume of 0.3M phosphate buffer (pH 8.5) was added, and the fluorescence intensity was measured at 520 nm (Em)/495 nm (Ex), and the undigested amount was quantitatively determined.
The enzyme inhibiting activity was expressed by the concentration (IC50) of the test compound wherein the enzyme activity of known amount was blocked till 50%.

[2] = molecular target: T1, Stromelysin (Mus musculus, UniProt P28862); assay: Stromelysin inhibiting activity (fluorescence labeled casein); format: biochemical; settings: from mouse colon cancer cell (Colon 26); 3 hours at 37° C., pH 7.5
T1 construct: endogenous in cells; host or cells: Colon 26 (mouse colon cancer cells), culture supernatant, purified
T1 sequence (P28862 100-477): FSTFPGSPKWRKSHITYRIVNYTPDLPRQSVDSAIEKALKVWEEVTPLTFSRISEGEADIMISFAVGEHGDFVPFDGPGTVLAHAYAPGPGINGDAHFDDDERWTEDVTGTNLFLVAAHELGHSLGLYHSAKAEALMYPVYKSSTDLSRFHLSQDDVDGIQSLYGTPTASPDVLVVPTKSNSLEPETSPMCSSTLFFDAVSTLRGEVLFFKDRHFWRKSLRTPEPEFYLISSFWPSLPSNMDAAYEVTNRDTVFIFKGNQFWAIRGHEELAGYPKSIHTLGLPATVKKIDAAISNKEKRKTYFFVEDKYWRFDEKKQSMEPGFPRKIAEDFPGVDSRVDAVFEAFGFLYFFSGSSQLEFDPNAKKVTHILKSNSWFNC
Procedure: (1) Measuring Method of Stromelysin Inhibiting Activity
Inhibiting of Stromelysin refined from the culture supernatant of mouse colon cancer cell (Colon 26 cell) was measured by using fluorescence labeled casein, according to the method proposed by Miyazaki et al. (J. Biochem., 108, 537-543, 1990), and S. S. Twining [Fed. Proc., 42, 1951 (1984)].
The enzyme was activated by incubating for 2 hours at 37° C. in 1 mM mercury (II) p-aminophenylacetate. The test compound was used by dissolving in dimethyl sulfoxide. The enzyme reaction was started by adding the activated enzyme in a solution of 50 mM TRIS-hydrochloric acid (pH 7.5), 10 mM CaCl2, and 0.1% (v/v) dimethyl sulfoxide containing the test compound and 0.25% (w/v) of fluorescence labeled casein as substrate. The reaction was conducted for 3 hours at 37° C., and stopped by adding an equivalent amount of 5% (w/v) trichloroacetic acid solution. Afterwards, by centrifugal separation for 15 minutes at 3000 rpm, 4° C., the undigested substrate was precipitated, and to 1 part by volume of the obtained supernatant, 4 parts by volume of 0.3M phosphate buffer (pH 8.5) was added, and the fluorescence intensity was measured at 520 nm (Em)/495 nm (Ex), and the decomposition volume was quantitatively determined.
(§1) The enzyme inhibiting activity was expressed by the concentration (IC50) of the test compound wherein the enzyme activity of known amount was inhibited till 50%.

[3] = molecular target: T2, Interstitial collagenase (Homo sapiens, UniProt P03956); assay: Interstitial collagenase inhibiting activity (fluorescence labeled collagen); format: biochemical; settings: from human fibroblast cell (Detroit 551); 2 hours at 35° C., pH 7.5
T2 construct: endogenous in cells; host or cells: Detroit 551 (human fibroblasts), culture supernatant, purified
T2 sequence (P03956 100-469): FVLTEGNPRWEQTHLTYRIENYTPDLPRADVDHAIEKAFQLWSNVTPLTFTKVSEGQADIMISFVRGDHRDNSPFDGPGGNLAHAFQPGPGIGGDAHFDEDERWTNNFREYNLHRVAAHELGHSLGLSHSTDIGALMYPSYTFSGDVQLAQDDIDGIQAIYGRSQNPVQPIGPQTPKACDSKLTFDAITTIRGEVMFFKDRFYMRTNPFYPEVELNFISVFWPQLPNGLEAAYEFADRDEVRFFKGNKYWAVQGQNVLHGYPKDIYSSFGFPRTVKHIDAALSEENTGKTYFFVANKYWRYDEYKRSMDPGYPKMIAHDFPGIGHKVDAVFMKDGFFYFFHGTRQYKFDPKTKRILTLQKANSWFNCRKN
Procedure: (2) Measuring Method of Interstitial Collagenase Inhibiting Activity
Inhibiting of interstitial collagenase refined from the culture supernatant of human fibroblast cell (Detroit 551 cell) was measured by using fluorescence labeled collagen, according to the method proposed by Nagai et al. [Inflammation, 4 (2), 123 (1984)].
The enzyme was activated by incubating for 3 hours at 37° C. in 1 mM mercury (II) p-aminophenylacetate. The test compound was used by dissolving in dimethyl sulfoxide. The enzyme reaction was started by adding the activated enzyme in 50 mM TRIS-hydrochloric acid (pH 7.5), 0.2M NaCl, 5 mM CaCl2, 0.02% (w/v) NaN3, 2.5 mM acetic acid, and 0.1% (v/v) dimethyl sulfoxide solution containing the test compound and 0.025% (w/v) of fluorescence labeled collagen as substrate. The reaction was conducted for 2 hours at 35° C., and stopped by adding ice-chilled 80 mM O-phenanthroline, 50% (v/v) ethanol solution by 1/20 amount. To this, moreover, an equivalent volume of 50 mM TRIS-hydrochloric acid (pH 7.5), 0.2M NaCl, 5 mM CaCl2, 0.02% (w/v) NaN3 solution was added to incubate further for 1 hour at 35° C. to degenerate specifically only the digestion product, and the digestion product was extracted by adding 0.17M TRIS-hydrochloric acid (pH 9.5), 0.67M NaCl solution including an equivalent amount of 70% (v/v) ethanol, and afterwards, by centrifugal separation for 15 minutes at 3000 rpm, 4° C., the undigested substrate was precipitated. The fluorescence intensity of the obtained supernatant was measured at 520 nm (Em)/495 nm (Ex), and the decomposition volume was quantitatively determined.
as §1

[4] = test system: Colon 26 PMF15 tumor cells; assay: Lung metastasis of Colon 26 PMF15 tumor in mice after oral administration; format: in vivo, male CDF1 mice; settings: Test I; for Number of lung metastastic nodules mean ± S.E.: day 28; for Ratio to control group: lung nodules
Procedure: Experiment was carried out according to a method of Motoyama et al. [Gan To Kagaku Ryoho (JAPAN), 21(8): pages 1209-1214, 1994]. That is, Colon 26 PMF15 tumor cells (5×10^5 /mouse) were inoculated into the left hind footpad of male CDF1 mice (one group comprising 7 mice). After 14 days from inoculation, the left hind-limb was cut from the upper part of the articulatio geniculum under pentobarbital anesthetization using a cautery knife to remove the primary tumor. After 28 days from inoculation,the lung was removed and the number of metastastic nodules on the surface thereof were measured, thereby taking it as an index of the effect. The test compound was orally administered one time a day until 27 days have passed since the day following the day when tumor cells were inoculated, excluding the day when the primary tumor was removed.

Row | Molecule | IC50 [1] [nM] | IC50 [2] [nM] | IC50 [3] [nM] | further results
1 | 1-(4-carboxybenzyl)-3(R or S)-[4-(N-hydroxyamino)-2R-isobutylsuccinyl]amino-3,4-dihydrocarbostyril [Example 30] | 240 |  |  | 
2 | 3S- [4-(N-hydroxyamino)-2R-isobutyl-3S-methylsuccinyl]amino-3,4-dihydrocarbostyril [Example 17] | 340 |  |  | 
3 | 3S- [4-(N-hydroxyamino)-2R-isobutyl-succinyl ]amino-1-isobutoxy-3,4-dihydrocarbostyril [Example 21] | 340 |  |  | 
4 | 3S-[4-(N-hydroxyamino)-2R-isobutyl-3S-methylsuccinyl]amino-1-(4-methoxybenzyl)-3,4dihydrocarbostyril [Example 31] | 1400 |  |  | 
5 | CC(C)C[C@@H](C(=O)N[C@H]1Cc2ccccc2NC1=O)C(CN1C(=O)c2ccccc2C1=O)C(=O)NO (single isomer, unassigned) [Test compound 7, 3S-[4-(N-hydroxyamino)-2R-isobutyl-3(R or S)-phthalimidomethylsuccinyl]amino-3,4-dihydrocarbostyril] | 18 | 23 |  | 
6 | CC(C)C[C@H](CC(=O)NO)C(=O)N[C@H]1Cc2ccccc2NC1=O [Test compound 1, 3S-[4-(N-hydroxyamino)-2R-isobutylsuccinyl]amino-3,4-dihydrocarbostyril] | 1700 | 570 | 210 | 
7 | COc1ccc2c(c1)NC(=O)[C@@H](NC(=O)[C@@H](CC(=O)NO)CC(C)C)C2 [Test compound 2, 3S-[4-(N-hydroxyamino)-2R-isobutylsuccinyl]amino-7-methoxy-3,4-dihydrocarbostyril] | 510 | 490 | 450 | 
8 | CON1C(=O)[C@@H](NC(=O)[C@@H](CC(=O)NO)CC(C)C)Cc2ccccc21 [Test compound 3, 3S-[4-(N-hydroxyamino)-2R-isobutylsuccinyl]amino-1-methoxy-3,4-dihydrocarbostyril] | 530 | 1300 | 690 | Number of lung metastastic nodules mean ± S.E. ([4]; 25 mg/kg/day oral): 19.0 ± 3.7; Number of lung metastastic nodules mean ± S.E. ([4]; 50 mg/kg/day oral): 18.7 ± 6.0; Number of lung metastastic nodules mean ± S.E. ([4]; 100 mg/kg/day oral): 13.0 ± 5.2; Number of lung metastastic nodules mean ± S.E. ([4]; 200 mg/kg/day oral): 9.2 ± 2.8; Ratio to control group ([4]; 25 mg/kg/day oral): 90%; Ratio to control group ([4]; 50 mg/kg/day oral): 88%; Ratio to control group ([4]; 100 mg/kg/day oral): 61%; Ratio to control group ([4]; 200 mg/kg/day oral): 43%
9 | CC(=O)SC[C@H](C(=O)NO)[C@@H](CC(C)C)C(=O)N[C@H]1Cc2ccccc2NC1=O [Test compound 4, 3S-[4-(N-hydroxyamino)-2R-isobutyl-3S-acetylthiomethylsuccinyl]amino-3,4-dihydrocarbostyril] | 1900 | 850 | 2900 | 
10 | CC(C)C[C@@H](C(=O)N[C@H]1Cc2ccccc2NC1=O)[C@H](CS)C(=O)NO [Test compound 5, 3S-[4-(N-hydroxyamino)-2R-isobutyl-3S-mercaptomethylsuccinyl]amino-3,4-dihydrocarbostyril] | 540 | 150 | 360 | 
11 | CC(C)C[C@@H](C(=O)N[C@H]1Cc2ccccc2NC1=O)[C@H](CSc1cccs1)C(=O)NO [Test compound 6, 3S-[4-(N-hydroxyamino)-2R-isobutyl-3S-(2-thienylthiomethyl)succinyl]amino-3,4-dihydrocarbostyril] | 58 | 27 | 2.4 | 
12 | COCOCCN1C(=O)[C@@H](NC(=O)[C@@H](CC(=O)NO)CC(C)C)Cc2ccccc21 [Test compound 19, 3S-[4-(N-hydroxyamino)-2R-isobutylsuccinyl]amino-1-methoxymethoxyethyl-3,4-dihydrocarbostyril] | 9800 |  | 140 | 
13 | CC(C)C[C@H](CC(=O)NO)C(=O)N[C@H]1Cc2cc3c(cc2N(C)C1=O)OCO3 [Test compound 27, 3S-[4-(N-hydroxyamino)-2R-isobutylsuccinyl]amino-1-methyl-6,7-methylenedioxy-3,4-dihydrocarbostyril] | 2200 |  | 110 | 
14 | CCCCC[C@H](CC(=O)NO)C(=O)N[C@H]1Cc2cc3c(cc2N(CC)C1=O)OCO3 [Test compound 29, 1-ethyl-3S-[4-(N-hydroxyamino)-2R-pentylsuccinyl]amino-6,7-methylenedioxy-3,4-dihydrocarbostyril] | 200 |  | 14 | 
